According to article PMC6457190, “Tridecaptin-inspired antimicrobial peptides with activity against multidrug-resistant Gram-negative bacteria” (MedChemComm, 2019):
Where a SMILES comes first, the peptide text is derived from it. [ ]: non-standard residue; d: D form. The star is where a group is joined. d(aIle) = CC[C@H](C)[C@@H](N)C(=O)O; dOrn = NCCC[C@@H](N)C(=O)O; dDab = NCC[C@@H](N)C(=O)O; Octanoyl = CCCCCCCC(=O)*; Orn = NCCC[C@H](N)C(=O)O; Dab = NCC[C@H](N)C(=O)O

Tests used:
P. pseudoalcaligenes = format: cell-based, Pseudomonas pseudoalcaligenes; conditions: for Peptide MIC: 18 h; for antimicrobial activity relative to Oct-TriA1: against P. pseudoalcaligenes
Method: (§1) IV. Antimicrobial testing
(§2) All minimum inhibitory concentrations (MICs) were determined according to Clinical and Standards Laboratory Institute (CLSI) guidelines. Briefly, peptides were dissolved in Muller-Hinton Broth (MHB) and serial dilutions made across a 96 well plate. Each well was inoculated with a suspension of the required bacterial strain to reach a final inoculum of 5 x 10^5 colony forming units per mL. The MIC was taken as the lowest concentration with no visible growth after 18 hours.

A. baumannii ACM 11 = format: cell-based, Acinetobacter baumannii; conditions: ACM 11, 18 h
Method: as §1, §2
(§3) V. Additional information on multidrug resistant strains
(§4) Organism Resistant Susceptible
(§5) Acinetobacter baumannii ACM 11 Ceftazimide

E. cloacae = format: cell-based, Enterobacter cloacae; conditions: 18 h
Method: as §1, §2

Equine erythrocytes = format: cell-based, horse; conditions: red cells of equine, 100 μg mL^–1
Method: Having assessed the antimicrobial activity of peptides 1–8 we next proceeded to assess their haemolytic activities (Table 2). Haemolytic activity was tested at 100 μg mL^–1, as the concentration required for haemolysis should be higher than antimicrobial MICs. Equine erythrocytes were exposed to peptides 1–8 and incubated for 30 min at 37 °C (Table 2). […] The low haemolytic activity observed for Oct-TriA2 (2,8-D-Lys, 7-Lys) (8) is consistent with its poor antimicrobial activity. […]
VI. Haemolytic activity assays
A 96-well plate was first prepared to contain phosphate-buffered saline (PBS) solutions (100 μL) of tridecaptin analogues 1 – 8 (200 μg/mL) (experiments run in triplicate). 0.1 % Triton X-100 (100 μL) was used as a positive control, while PBS (100 μL) was used as a blank. After the plate had been prepared, defibrinated horse blood (0.5 mL, VWR International) was diluted with phosphate-buffered saline (9.5 mL) and gently shaken. The resulting mixture was centrifuged (5600 rpm, 5 min) using a Thermo Scientific Heraeus Labofuge 200 centrifuge and the supernatant carefully removed. This process was repeated three more times to remove any free hemoglobin. The resulting erythrocyte pellet was gently resuspended in 9.5 mL of PBS. Aliquots of the resulting mixture (100 μL) were added to the appropriate wells on the 96-well plate using a multichannel pipette and the plate incubated at 37 °C for 30 min. The samples were gently mixed by pipetting, and 20 μL of each was added to 200 μL of PBS. Once again, the samples were gently mixed. The diluted samples were then centrifuged (7000 rpm, 5 min) using a SciSpin MINI Microfuge. Supernatant (150 μL) from each sample was added to a new 96-well plate. The absorbance of each sample was individually measured at 415 nm using a Denovix DS-11 FX+ Spectrophotometer. Percent hemolysis of the peptides was calculated relative to Triton X- 100, while the PBS negative control was used as a blank.

A. baumannii ACM 29 = format: cell-based, Acinetobacter baumannii; conditions: ACM 29, 18 h
Method: as §1, §2
V. Additional information on multidrug resistant strains […]
Organism Resistant Susceptible […]
(§6) Acinetobacter baumannii ACM 29 Ceftazimide
(§7) Isolated from peritoneum of 3-year- Imipenem

A. baumannii = format: cell-based, Acinetobacter baumannii; conditions: 18 h
Method: as §1, §2, §3, §4
Acinetobacter baumannii Cefotaxime Imipenem
Isolated from sewage contaminated Tetracycline Colistin water (Tripoli, Lebanon). Ofloxacin Tobramycin
as §5, §6, §7

K. pneumoniae IMP 216 = format: cell-based, Klebsiella pneumoniae; conditions: IMP 216, 18 h
Method: as §1, §2

K. pneumoniae = format: cell-based, Klebsiella pneumoniae; conditions: 18 h
Method: as §1, §2

K. pneumoniae IMP 177 = format: cell-based, Klebsiella pneumoniae; conditions: IMP 177, 18 h
Method: as §1, §2

K. pneumoniae IMP 170 = format: cell-based, Klebsiella pneumoniae; conditions: IMP 170, 18 h
Method: as §1, §2

K. pneumoniae IMP 204 = format: cell-based, Klebsiella pneumoniae; conditions: IMP 204, 18 h
Method: as §1, §2

K. pneumoniae IMP 485 = format: cell-based, Klebsiella pneumoniae; conditions: IMP 485, 18 h
Method: as §1, §2

[1] = system: panel of Gram-negative bacteria; experiment: MIC, summary over the panel of strains; format: cell-based
Source text: Previous studies have shown that the tridecaptins have strong activity against clinically relevant Gram-negative strains.[8],[14] This includes A. baumannii and Enterobacteriaceae such as Klebsiella pneumoniae and Enterobacter spp., however P. aeruginosa is less susceptible. The World Health Organization (WHO) currently lists carbapenemase-producing strains of these Gram-negative bacteria as critical priority pathogens. We therefore decided to synthesize a library of novel tridecaptin analogues containing conservative substitutions at positions 2, 7, 8 and/or 12, and evaluate their activity against a panel of these strains (Table 1). This panel of Gram-negative bacteria contains environmental samples isolated from sewage contaminated water in Lebanon, as well as several strains isolated from patients at clinical settings. […]
MilliQ water and solvent B = 0.1 % TFA in ACN. […] High resolution mass spectrometry (HRMS) spectra of all peptides were recorded by Analytical Services and Environmental Projects (ASEP) at Queen’s University Belfast on a Waters LCT Premier ToF mass spectrometer using the electrospray ionisation (ESI) technique. […]
All minimum inhibitory concentrations (MICs) were determined according to Clinical and Standards Laboratory Institute (CLSI) guidelines. […]

| Compound | Peptide MIC (P. pseudoalcaligenes) [μg mL^–1] | Peptide MIC (A. baumannii ACM 11) [μg mL^–1] | Peptide MIC (E. cloacae) [μg mL^–1] | Peptide MIC (A. baumannii ACM 29) [μg mL^–1] | Peptide MIC (A. baumannii) [μg mL^–1] | Peptide MIC (K. pneumoniae IMP 216) [μg mL^–1] | Peptide MIC (K. pneumoniae) [μg mL^–1] | Peptide MIC (K. pneumoniae IMP 177) [μg mL^–1] | Peptide MIC (K. pneumoniae IMP 170) [μg mL^–1] | Peptide MIC (K. pneumoniae IMP 204) [μg mL^–1] | Peptide MIC (K. pneumoniae IMP 485) [μg mL^–1] | % haemolysis (Equine erythrocytes) [%] | antimicrobial activity at the highest concentrations tested ([1]; highest concentration tested 100 μg mL^–1, all strains of the panel) | antimicrobial activity relative to Oct-TriA1 (1) ([1]; against most strains tested) | antimicrobial activity relative to Oct-TriA1 (P. pseudoalcaligenes) |
| --- | --- | --- | --- | --- | --- | --- | --- | --- | --- | --- | --- | --- | --- | --- | --- |
| CCCCCCCC(=O)N[C@@H](C(=O)N[C@H](CCCCN)C(=O)NCC(=O)N[C@H](CO)C(=O)N[C@H](Cc1c[nH]c2ccccc12)C(=O)N[C@@H](CO)C(=O)N[C@@H](CCCCN)C(=O)N[C@H](CCCCN)C(=O)N[C@@H](Cc1ccccc1)C(=O)N[C@@H](CCC(=O)O)C(=O)N[C@H](C(=O)N[C@@H](C(=O)N[C@@H](C)C(=O)O)C(C)C)C(C)C)C(C)C [Peptide 8, Oct-TriA2 (2,8-D-Lys, 7-Lys)] (HELM PEPTIDE1{[CCCCCCCC(=O)[*:2]].[dV].[dK].G.[dS].[dW].S.K.[dK].F.E.V.[dV].A}$$$$V2.0) | >100 | >100 | >100 | >100 | >100 | >100 | >100 | >100 | >100 | >100 | >100 | 2.8 | no antimicrobial activity | – | – |
| CCCCCCCC(=O)N[C@@H](C(=O)N[C@H](CCCCN)C(=O)NCC(=O)N[C@H](CO)C(=O)N[C@H](Cc1c[nH]c2ccccc12)C(=O)N[C@@H](CO)C(=O)N[C@@H](CCCCN)C(=O)N[C@H](CCCCN)C(=O)N[C@@H](Cc1ccccc1)C(=O)N[C@@H](CCC(=O)O)C(=O)N[C@H](C(=O)N[C@@H](C(=O)N[C@@H](C)C(=O)O)[C@@H](C)CC)C(C)C)C(C)C [Peptide 6, Oct-TriA1 (2,8-D-Lys, 7-Lys)] (HELM PEPTIDE1{[CCCCCCCC(=O)[*:2]].[dV].[dK].G.[dS].[dW].S.K.[dK].F.E.V.[CC[C@H](C)[C@@H](N[*:1])C(=O)[*:2]].A}$$$$V2.0) | 100 | 25 | 25 | 25 | 6.25 | 25 | 50 | 25 | 50 | 50 | 25 | 86.4 | – | – | – |
| CCCCCCCC(=O)N[C@@H](C(=O)N[C@H](CCN)C(=O)NCC(=O)N[C@H](CO)C(=O)N[C@H](Cc1c[nH]c2ccccc12)C(=O)N[C@@H](CO)C(=O)N[C@@H](CCN)C(=O)N[C@H](CCN)C(=O)N[C@@H](Cc1ccccc1)C(=O)N[C@@H](CCC(=O)O)C(=O)N[C@H](C(=O)N[C@@H](C(=O)N[C@@H](C)C(=O)O)C(C)C)C(C)C)C(C)C [Peptide 2, Oct-TriA2] (Octanoyl-[dV][dDab]G[dS][dW]S[Dab][dDab]FEV[dV]A-OH) | 50 | 100 | 6.25 | 50 | 25 | 12.5 | 12.5 | 25 | 12.5 | 12.5 | 12.5 | 52.1 | – | two- to four-fold less active | – |

Second part, led by results:

| Peptide MIC (P. pseudoalcaligenes) [μg mL^–1] | Peptide MIC (A. baumannii ACM 11) [μg mL^–1] | Peptide MIC (E. cloacae) [μg mL^–1] | Peptide MIC (A. baumannii ACM 29) [μg mL^–1] | Peptide MIC (A. baumannii) [μg mL^–1] | Peptide MIC (K. pneumoniae IMP 216) [μg mL^–1] | Peptide MIC (K. pneumoniae) [μg mL^–1] | Peptide MIC (K. pneumoniae IMP 177) [μg mL^–1] | Peptide MIC (K. pneumoniae IMP 170) [μg mL^–1] | Peptide MIC (K. pneumoniae IMP 204) [μg mL^–1] | Peptide MIC (K. pneumoniae IMP 485) [μg mL^–1] | Compound | % haemolysis (Equine erythrocytes) [%] | antimicrobial activity at the highest concentrations tested ([1]; highest concentration tested 100 μg mL^–1, all strains of the panel) | antimicrobial activity relative to Oct-TriA1 (1) ([1]; against most strains tested) | antimicrobial activity relative to Oct-TriA1 (P. pseudoalcaligenes) |
| --- | --- | --- | --- | --- | --- | --- | --- | --- | --- | --- | --- | --- | --- | --- | --- |
| 25 | 25 | 25 | 50 | 50 | 25 | 50 | 25 | 25 | 25 | 25 | CCCCCCCC(=O)N[C@@H](C(=O)N[C@H](CCCCN)C(=O)NCC(=O)N[C@H](CO)C(=O)N[C@H](Cc1c[nH]c2ccccc12)C(=O)N[C@@H](CO)C(=O)N[C@@H](CCCCN)C(=O)N[C@H](CCN)C(=O)N[C@@H](Cc1ccccc1)C(=O)N[C@@H](CCC(=O)O)C(=O)N[C@H](C(=O)N[C@@H](C(=O)N[C@@H](C)C(=O)O)[C@@H](C)CC)C(C)C)C(C)C [Peptide 4, Oct-TriA1 (2-D-Lys, 7-Lys)] (Octanoyl-[dV][dK]G[dS][dW]SK[dDab]FEV[d(aIle)]A-OH) | 71.4 | – | – | enhanced antimicrobial activity |
| 50 | 50 | 6.25 | 50 | 12.5 | 6.25 | 12.5 | 25 | 25 | 25 | 25 | CCCCCCCC(=O)N[C@@H](C(=O)N[C@H](CCCN)C(=O)NCC(=O)N[C@H](CO)C(=O)N[C@H](Cc1c[nH]c2ccccc12)C(=O)N[C@@H](CO)C(=O)N[C@@H](CCCN)C(=O)N[C@H](CCCN)C(=O)N[C@@H](Cc1ccccc1)C(=O)N[C@@H](CCC(=O)O)C(=O)N[C@H](C(=O)N[C@@H](C(=O)N[C@@H](C)C(=O)O)[C@@H](C)CC)C(C)C)C(C)C [Peptide 5, Oct-TriA1 (2,8-D-Orn, 7-Orn)] (Octanoyl-[dV][dOrn]G[dS][dW]S[Orn][dOrn]FEV[d(aIle)]A-OH) | 77.5 | – | – | – |
| 12.5 | 50 | 25 | 50 | 100 | 25 | 100 | 25 | 25 | 25 | 25 | CCCCCCCC(=O)N[C@@H](C(=O)N[C@H](CCCN)C(=O)NCC(=O)N[C@H](CO)C(=O)N[C@H](Cc1c[nH]c2ccccc12)C(=O)N[C@@H](CO)C(=O)N[C@@H](CCCN)C(=O)N[C@H](CCN)C(=O)N[C@@H](Cc1ccccc1)C(=O)N[C@@H](CCC(=O)O)C(=O)N[C@H](C(=O)N[C@@H](C(=O)N[C@@H](C)C(=O)O)[C@@H](C)CC)C(C)C)C(C)C [Peptide 3, Oct-TriA1 (2-D-Orn, 7-Orn)] (Octanoyl-[dV][dOrn]G[dS][dW]S[Orn][dDab]FEV[d(aIle)]A-OH) | 66.7 | – | – | enhanced antimicrobial activity |
